Biological target: T1, TLR4; Recombinant human TLR4 protein (Active) (Homo sapiens, UniProt O00206)
T1 construct: commercial recombinant protein (Abcam, 'Active'); immobilised on CM5 chip by amine coupling
Assay: surface plasmon resonance (Biacore T200, TLR4 immobilised on CM5 chip)
Format: binding
From the text: surface plasmon resonance (Biacore T200, TLR4 immobilised on CM5 chip) on TLR4; Recombinant human TLR4 protein (Active)

T1 sequence (O00206 24-631 limits assumed): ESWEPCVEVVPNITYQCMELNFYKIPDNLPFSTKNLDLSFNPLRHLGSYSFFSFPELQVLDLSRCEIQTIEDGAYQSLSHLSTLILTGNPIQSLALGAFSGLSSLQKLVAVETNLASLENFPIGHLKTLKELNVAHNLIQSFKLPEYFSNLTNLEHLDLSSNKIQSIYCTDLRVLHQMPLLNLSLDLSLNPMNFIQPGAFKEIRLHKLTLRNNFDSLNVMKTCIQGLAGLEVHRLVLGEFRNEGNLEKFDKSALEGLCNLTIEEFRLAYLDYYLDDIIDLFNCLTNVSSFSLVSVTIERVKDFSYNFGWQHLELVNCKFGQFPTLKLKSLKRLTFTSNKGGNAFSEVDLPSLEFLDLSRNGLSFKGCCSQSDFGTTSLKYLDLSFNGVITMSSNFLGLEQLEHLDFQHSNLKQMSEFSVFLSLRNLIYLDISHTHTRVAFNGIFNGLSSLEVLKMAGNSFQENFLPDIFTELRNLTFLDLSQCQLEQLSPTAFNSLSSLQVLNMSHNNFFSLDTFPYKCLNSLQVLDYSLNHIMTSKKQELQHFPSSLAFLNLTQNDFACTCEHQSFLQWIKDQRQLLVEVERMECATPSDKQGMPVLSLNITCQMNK

Kd: 19.2 µM
Compound: O=c1oc2c(O)c(O)cc3c(=O)oc4c(O)c(O)cc1c4c23 [Ellagic acid]

Source: PMC10981743, “Network pharmacology, computational biology integrated surface plasmon resonance technology reveals the mechanism of ellagic acid against rotavirus” (Scientific Reports, 2024)
